Key:
[1] = DPPH free radical scavenging assay; conditions: read-out: DPPH IC50; 0.1 mM DPPH, 30 min, 517 nm; mean ± SD
[2] = tested on: MCF-7 (human breast adenocarcinoma) cells; test: Cytotoxicity assay; format: cell-based; conditions: MCF7, 48 h, read-out: IC50 (MCF-7)
[3] = tested on: HEK-293 (normal human embryonic kidney) cells; test: Cytotoxicity assay; format: cell-based; conditions: HEK293, 48 h, read-out: IC50 (HEK-293)
[4] = tested on: Plasmodium falciparum 3D7; test: Antimalarial assay; format: cell-based

Row | Structure (SMILES) | IC50 [1] | IC50 [2] | IC50 [3] | IC50 ([4]; Plasmodium falciparum, 3D7, 72 h, read-out: Antimalarial IC50) | Selectivity index (HEK/IC50) ([4]; SI = IC50 (HEK-293)/IC50 (antimalarial))
1 | O=C1O[C@H]([C@@H](O)CO)C(O)=C1O [Ascorbic acid, reference compound] | 5.21 ± 0.06 µM | – | – | – | –
2 | CC(=NNC(=S)NN=C(C(=NO)c1ccccc1)c1ccccc1)c1ccccc1C [HBMT-MA7, N'-[2-(Hydroxyimino)-1,2-diphenylethylidene]-2-[1-(o-tolyl)ethylidene]hydrazine-1-carbothiohydrazide] | 10.5 ± 0.19 µM | 29.7 ± 1 µM | 68.2 ± 1.8 µM | 2.91 ± 0.14 µM | 23.4
